Here are results for 17 compounds from patent publication US8933070B2, “Methods of targeting PTEN mutant diseases and compositions therefor” (University Health Network, priority 2010, dated 2015).

Structures are written as SMILES.

Assay [1] has as its target T1, PLK2 (Homo sapiens, UniProt Q9NYY3).
T1 construct: purchased Invitrogen PV4204
Kind of assay: PLK2 inhibition assay (Z-Lyte). The assay is classed as biochemical. To be noted: for inhibition at 10 µM: dose of 10 μM, read-out: PLK2 relative inhibition percentage. The method, then:
PLK2 inhibition was determined using the Z-Lyte assay kit from Invitrogen (cat# PV3802). The assay was performed using the recommended manufacturer's instructions with 60 μM ATP and 133 nM PLK2 (Invitrogen cat #PV4204). The % inhibition values were determined according to the manufacturer's directions and IC50 values were obtained using a non-linear 4 point logistic curve fit (XLfit4, IDBS)

For assay [2], the target named is T2, PLK1 (Homo sapiens, UniProt P53350).
T2 construct: purchased Invitrogen PV3501
In words: PLK1 inhibition assay (Z-Lyte). The assay is classed as biochemical. The settings on record: dose of 10 μM; read-out: PLK1 relative inhibition percentage.
Description: PLK1 inhibition was determined using the Z-Lyte assay kit from Invitrogen (cat#PV3802). The assay was performed using the recommended manufacturer's instructions with 25 μM ATP and 8 nM PLK1 (Invitrogen cat #PV3501). The % inhibition values were determined according to the manufacturer's directions and IC50 values were obtained using a non-linear 4 point logistic curve fit (XLfit4, IDBS)

For assay [3], the system named is HCC1954 basal breast cancer cell line. Kind of assay: Cell growth inhibition, Sulforhodamine B (SRB) assay. The assay is classed as cell-based. The settings on record: Homo sapiens, HCC1954, 120 h; 5 days, SRB; Table 5; read-out: Cell Line GI50 Range HCC1954. The method, then: (§1) Aliquots (20 μl) from each concentration were overlaid to 80 μl of the pre-seeded cells in the 96-plates to make final concentrations of 10 nM to 50 μM. The cells were cultured for 5 days before the Sulforhodamine B (SRB) assay was performed to determine the compound's cell growth inhibition activity.
(§2) Sulforhodamine B (Sigma, Canada) is a water-soluble dye that binds to the basic amino acids of cellular proteins. Thus, colorimetric measurement of the bound dye provides an estimate of the total protein mass that is related to the cell number. The cells are fixed in situ by gently aspirating off the culture media and adding 50 μl ice cold 10% Trichloroacetic Acid (TCA) per well and incubated at 4° C. for 30-60 min. The plates are washed with water five times and allowed to air dry for 5 min. Addition of 50 μl 0.4% (w/v) SRB solution in 1% (v/v) acetic acid to each well and incubatation for […] at RT completes the staining reaction. Following staining, plates are washed four times with 1% acetic acid to remove unbound dye and then allowed to air dry for 5 min. […] Absorbance is read at 570 nm.
(§3) The percentage (%) of relative growth inhibition was calculated by comparing to DMSO-treated only cells (100%). GI50's were determined for compounds with cytotoxic activity. The GI50 was calculated using GraphPad PRISM software (GraphPad Software, Inc., USA).
The SRB assay described above was used to assay test compounds against the extended panel (Table 6).

Assay [4] concerns human mammary epithelial primary cells (HMEC). Described as above. To be noted: 120 h, 5 days, SRB, normal primary breast cells, read-out: Cell Line GI50 Range HMEC. Type of assay: cell-based. As to the method: as §1, §2, §3
Assay [5] deals with A549 lung cancer cell line. The assay is described as above. The assay is classed as cell-based. To be noted: Homo sapiens, A549, 120 h; 5 days, SRB; read-out: Cell Line GI50 Range A549. As to the method: as §1, §2, §3
Assay [6] relates to MCF-7 luminal breast cancer cell line. The assay is described as above. Type of assay: cell-based. To be noted: Homo sapiens, MCF7, 120 h; 5 days, SRB; read-out: Cell Line GI50 Range MCF-7. The method, then:
as §1, §2, §3

Assay [7] relates to SW620 colon cancer cell line. The description is as above. The settings on record: Homo sapiens, SW-620, 120 h; 5 days, SRB; read-out: Cell Line GI50 Range SW620. Type of assay: cell-based. As to the method: as §1, §2, §3
Assay [8] has as its system MDA-MB-468 basal breast cancer cell line. The description is as above. Type of assay: cell-based. The settings on record: Homo sapiens, MDA-MB-468, 120 h; 5 days, SRB; read-out: Cell Line GI50 Range MDA-MB-468.
Description: Breast cancer and normal cells were seeded at various concentrations, ranging from 1500 to 4000 per 80 μl according to cell growth rate, into 96-well plates 24 hours before compound overlay. Each 10 mM stock solution in 100% DMSO of the compounds was diluted with Opti-MEM I Reduced-Serum Medium (Invitrogen, Canada) to make concentration ranges from 50 nM to 250 μM. 20 μl from each concentration was added to the cells to make the final concentration range from 10 nM to 50 μM. The cells were cultured at 37° C. for 5 days before the Sulforhodamine B (SRB) assay was performed to assess cell survival. SRB is a water-soluble dye that binds to the basic amino acids of cellular proteins. Thus, colorimetric measurement of the bound dye provides an estimate of the total protein mass and is related to cell number. The cells were fixed in situ by gently aspirating off the culture media and adding 50 μl ice-cold 10% Tri-chloroacetic Acid (TCA) per well and incubation at 4° C. for 30-60 min. The plates were washed with tap water five times and allowed to air dry for 5 min. 50 μl of 0.4% (w/v) SRB solution in 1% (v/v) acetic acid was added per well and incubated for 30 mM at RT for staining. Following staining, plates were washed four times with 1% acetic acid to remove any unbound dye and then allowed to air dry for 5 min. The stain was solubilized with 100 μl of 10 mM Tris pH 10.5 per well. Absorbances were read at 570 nm. The cell survival percentage at each compound concentration was calculated over the cell DMSO control, which was growing in the presence of 0.1% DMSO (0.5% in the case of 50 μM compounds). Cell viability GI50 values were calculated using GraphPad PRISM software (GraphPad Software, Inc.).
The target in assay [9] is T3, human PLK4 (Homo sapiens, UniProt O00444).
T3 construct: amino terminal GST fusion of residues 1-391 of human PLK4; made in house; host or cells: E. coli
T3 sequence (O00444 1-391): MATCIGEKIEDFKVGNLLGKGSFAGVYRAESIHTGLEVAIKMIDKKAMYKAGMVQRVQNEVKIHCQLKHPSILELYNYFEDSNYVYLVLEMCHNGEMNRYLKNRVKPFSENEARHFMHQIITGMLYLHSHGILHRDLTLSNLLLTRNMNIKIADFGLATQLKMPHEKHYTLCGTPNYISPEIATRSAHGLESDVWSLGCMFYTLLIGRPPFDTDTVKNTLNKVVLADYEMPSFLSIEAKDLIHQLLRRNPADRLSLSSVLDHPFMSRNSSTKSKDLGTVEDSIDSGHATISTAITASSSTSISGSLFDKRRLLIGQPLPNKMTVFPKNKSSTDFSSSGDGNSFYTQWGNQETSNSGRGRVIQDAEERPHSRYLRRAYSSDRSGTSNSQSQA
In words: PLK4 inhibition assay (indirect ELISA). The assay is classed as biochemical. The settings on record: read-out: IC50 Ranges PLK4. The method, then: The protein was purified from clarified cell extracts after induction at 15° C. overnight using glutathione sepharose, gel permeation chromatography, and ion exchange (Resource Q). The resulting protein was dephosphorylated with lambda phosphatase (NEB cat# P0753), and resolved from the phosphatase using gluthione sepharose. The dephosphorylated GST-PLK4 was stored in aliquots at −80° C. until use.
PLK4 activity was measured using an indirect ELISA detection system. […] The colourimetric reaction was allowed to continue for 5 minutes, followed by addition of stop solution (0.5 N sulphuric acid), and quantified by detection at 450 nm with either a monochromatic or filter based plate reader (Molecular Devices M5 or Beckman DTX880, respectively).
Compounds were pre-incubated in the presence of enzyme for 15 minutes prior to addition of ATP and the activity remaining quantified using the above described activity assay. […] The IC50 value was determined using a non-linear 4 point logistic curve fit (XLfit4, IDBS) with the formula; (A+(B/(1+((x/C)^D)))), where A=background value, B=range, C=inflection point, D=curve fit parameter.

For assay [10], the system named is AMPKalpha. In words: Kinase selectivity assay (CEREP, HTRF). The assay is classed as biochemical, human. As to the method:
The inhibitory activity of selected compounds was evaluated against a panel of 45 different kinase enzymes by CEREP, France. The assays were performed using standard HTRF assay methods as documented by CEREP against the human orthologues of Abl kinase, Akt1/PKBa, AMPKa, BMX kinase (Etk), Brk, CaMK2a, CaMK4, CDC2/CDK1 (cycB), CHK1, CHK2, c-Met kinase, CSK, EphB4 kinase, ERK1, ERK2 (P42mapk), FGFR2 kinase, FGFR4 kinase, FLT-1 kinase (VEGFR1), FLT-3 kinase, Fyn kinase, IGF1R kinase, IRK (InsR), JNK 2, KDR kinase (VEGFR2), Lck kinase, Lyn kinase, MAPKAPK2, MEK1/MAP2K1, p38a kinase, p38d kinase, p38g kinase, PDGFRb kinase, PDK1, PKA, PKCa, PKCb1, PKCb2, PKCg, Ret kinase, ROCK2, RSK2, Src kinase, Syk, and TRKA. The % Inhibition was determined by the formula; % Inhibition=100×(1−(experimental value−background value)/(high activity control−background value)).

The target of assay [11] is FGFR1. In words: Millipore kinase assay (radiolabelled phosphopeptide filter binding), IC50 estimate. To be noted: estimated from inhibition at three compound concentrations; ATP at Km; read-out: IC50 value estimates against FGFR1. Type of assay: biochemical. The method, then: For a number of compounds, IC50 values were estimated against kinases of interest based on Millipore protocols. Kinase assays at Millipore were performed using a radiolabelled phosphopeptide filter binding detection system, in duplicate, at each compound concentration. The ATP substrate concentration in the reactions was at the Km for each enzyme.
To allow for a more direct comparison of compound inhibition, an IC50 value was estimated from the inhibition determined at three compound concentrations. Several assumptions were made to allow this calculation using a 4 parameter non linear curve fit model, including full inhibition set at 100%, no inhibition set to 0%, and a curve fit parameter set at 1. The inflection point was reported as the estimated […].

Assay [12] deals with T4, Aurora B (Homo sapiens, UniProt Q96GD4).
T4 construct: purchased Invitrogen PV3970
In words: Aurora B inhibition assay (Z-Lyte). Type of assay: biochemical. The settings on record: read-out: IC50 Ranges Aurura B. The method, then: Aurora B inhibition was determined using the Z-Lyte assay kit from Invitrogen. […] The % inhibition values were determined according to the manufacturer's directions and IC50 values were obtained using a non-linear 4 point logistic curve fit (XLfit4, IDBS).

Assay [13] has as its target T5, Aurora A (Homo sapiens, UniProt O14965).
T5 construct: purchased Invitrogen PV3612
T5 sequence (O14965 1-403): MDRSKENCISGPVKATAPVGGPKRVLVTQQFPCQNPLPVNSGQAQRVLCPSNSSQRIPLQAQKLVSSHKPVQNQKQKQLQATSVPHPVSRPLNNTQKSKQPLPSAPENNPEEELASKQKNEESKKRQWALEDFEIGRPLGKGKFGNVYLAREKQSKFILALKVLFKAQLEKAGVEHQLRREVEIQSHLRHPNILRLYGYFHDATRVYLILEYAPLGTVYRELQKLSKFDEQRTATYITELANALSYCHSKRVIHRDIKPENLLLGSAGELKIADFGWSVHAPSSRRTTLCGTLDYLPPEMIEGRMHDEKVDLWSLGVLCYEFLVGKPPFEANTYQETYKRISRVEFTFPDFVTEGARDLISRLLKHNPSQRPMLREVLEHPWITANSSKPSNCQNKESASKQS
In words: Aurora A inhibition assay (Z-Lyte). The assay is classed as biochemical. The settings on record: for inhibition at 10 µM: dose of 10 μM, read-out: Aurora A relative inhibition percentage. As to the method:
Aurora A inhibition was determined using the Z-Lyte assay kit from Invitrogen. The assay was performed using the recommended manufacturer's instructions with 20 nM ATP and 12 nM Aurora A (Invitrogen cat #PV3612). The % inhibition values were determined according to the manufacturer's directions and IC50 values were obtained using a non-linear 4 point logistic curve fit (XLfit4, IDBS)

T4 sequence (Q96GD4 whole entry): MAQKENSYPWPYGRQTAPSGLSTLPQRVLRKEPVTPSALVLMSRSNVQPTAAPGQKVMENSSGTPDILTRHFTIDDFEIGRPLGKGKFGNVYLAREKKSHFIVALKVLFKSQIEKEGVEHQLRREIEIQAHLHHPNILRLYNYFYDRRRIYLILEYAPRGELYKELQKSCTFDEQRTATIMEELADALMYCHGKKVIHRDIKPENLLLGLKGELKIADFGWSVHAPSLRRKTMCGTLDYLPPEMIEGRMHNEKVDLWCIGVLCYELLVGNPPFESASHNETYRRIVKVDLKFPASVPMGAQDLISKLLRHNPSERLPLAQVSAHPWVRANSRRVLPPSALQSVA
T1 sequence (Q9NYY3 whole entry): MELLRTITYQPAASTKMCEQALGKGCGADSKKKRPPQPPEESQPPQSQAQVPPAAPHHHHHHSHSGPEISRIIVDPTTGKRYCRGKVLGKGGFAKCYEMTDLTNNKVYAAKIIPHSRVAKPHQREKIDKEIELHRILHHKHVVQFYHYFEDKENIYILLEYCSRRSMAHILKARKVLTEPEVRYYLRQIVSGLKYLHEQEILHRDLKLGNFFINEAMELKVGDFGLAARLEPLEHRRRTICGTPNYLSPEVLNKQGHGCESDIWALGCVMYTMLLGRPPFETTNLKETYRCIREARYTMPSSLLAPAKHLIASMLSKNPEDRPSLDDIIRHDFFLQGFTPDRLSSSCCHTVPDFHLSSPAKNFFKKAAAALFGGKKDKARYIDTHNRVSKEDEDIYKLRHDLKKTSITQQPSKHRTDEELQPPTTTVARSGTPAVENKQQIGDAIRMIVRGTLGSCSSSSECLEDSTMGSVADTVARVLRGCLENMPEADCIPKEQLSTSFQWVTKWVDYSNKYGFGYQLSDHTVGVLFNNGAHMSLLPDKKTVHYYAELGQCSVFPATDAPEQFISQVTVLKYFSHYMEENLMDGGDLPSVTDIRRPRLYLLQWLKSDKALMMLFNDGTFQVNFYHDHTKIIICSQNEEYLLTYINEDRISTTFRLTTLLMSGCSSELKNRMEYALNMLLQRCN
T2 sequence (P53350 whole entry): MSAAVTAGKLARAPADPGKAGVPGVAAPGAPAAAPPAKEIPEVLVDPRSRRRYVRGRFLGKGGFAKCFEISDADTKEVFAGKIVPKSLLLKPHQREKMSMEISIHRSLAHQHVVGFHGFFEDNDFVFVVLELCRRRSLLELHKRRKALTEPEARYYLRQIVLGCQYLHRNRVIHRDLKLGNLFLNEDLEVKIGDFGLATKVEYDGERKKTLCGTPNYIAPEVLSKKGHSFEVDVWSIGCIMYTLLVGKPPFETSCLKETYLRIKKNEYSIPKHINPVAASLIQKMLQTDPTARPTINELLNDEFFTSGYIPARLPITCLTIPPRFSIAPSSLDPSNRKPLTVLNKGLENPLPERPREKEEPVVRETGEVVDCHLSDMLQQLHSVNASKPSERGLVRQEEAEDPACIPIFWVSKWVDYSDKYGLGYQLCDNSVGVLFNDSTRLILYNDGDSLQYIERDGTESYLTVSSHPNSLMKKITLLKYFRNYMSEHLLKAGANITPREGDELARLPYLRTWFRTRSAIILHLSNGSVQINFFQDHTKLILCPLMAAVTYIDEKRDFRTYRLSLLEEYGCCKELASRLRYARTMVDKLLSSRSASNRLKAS

In the case of `CN(C)Cc1ccc(/C=C/c2n[nH]c3cc([C@@H]4C[C@@]45C(=O)Nc4ccccc45)ccc23)cc1` (racemic) [Compound 5], the inhibition at 10 µM in assay [1] and in assay [2] was less than 50% each time.
Turning to `O=C1Nc2ccccc2[C@@]12C[C@@H]2c1ccc2c(/C=C/c3ccncc3)n[nH]c2c1` (racemic) [Compound 6], the inhibition at 10 µM in assay [1] is less than 50%. The GI50 in assay [3] was less than 5 µM; in [4], 5 to 20 µM; in [5] it was less than 5 µM; in assay [6], less than 5 µM; in assay [7] it was less than 5 µM; in assay [8], less than 5 µM.
On to `O=C1Nc2ccccc2[C@@]12C[C@@H]2c1ccc2cn[nH]c2c1` (racemic) [Compound 40], for which, in [1] (read-out: IC50 Ranges PLK2), the IC50 was greater than 50 µM.
Consider `COc1ccc2c(c1)/C(=C\c1ccc3c(/C=C/c4ccc(CN(C)C)cc4)n[nH]c3c1)C(=O)N2` [Compound 1], for which the 50% inhibitory concentration (IC50) in assay [9] was less than 5 µM.
For `O=C1Nc2ccccc2C1=Cc1ccc2c(/C=C/c3ccccn3)n[nH]c2c1` [Compound 9], the “% Inhibition at 10 μM Concentration” value in assay [10] is reported as 81%. Further, the half-inhibitory concentration (IC50) in assay [11] is less than 5 µM.
Consider `Cc1ncsc1/C=C/c1n[nH]c2cc(/C=C3/C(=O)Nc4ccccc43)ccc12` [Compound 10], for which the IC50 in assay [9] and in [12] was less than 5 µM throughout.
With `COc1ccc2c(c1)/C(=C\c1ccc3c(-c4ccc(N(C)C)nc4)n[nH]c3c1)C(=O)N2` [Compound 11], the half-maximal inhibitory concentration (IC50) in assay [13] (read-out: IC50 Ranges Aurora A), in [9] and in [12] was less than 5 µM in each case.
For `COc1ccc2c(c1)C1(CC1c1ccc3c(I)n[nH]c3c1)C(=O)N2` (centres unmarked) [Compound 12], the IC50 in assay [9] was less than 5 µM.
In the case of `O=C1Nc2ccccc2/C1=C\c1ccc2[nH]nnc2c1` [Compound 24], in assay [10], the “% Inhibition at 10 μM Concentration” value was found to be 15%.
Still for that read-out and setting: to `O=C1Nc2ccccc2/C1=C\c1ccc2cn[nH]c2c1` [Compound 26] belongs 54%.
As to `O=C1Nc2ccccc2/C1=C\c1ccc2c(/C=C/c3ccncc3)n[nH]c2c1` [Compound 28], the IC50 in assay [11] is less than 5 µM.
In the case of `O=C1Nc2ccccc2/C1=C\c1ccc2c(/C=C/c3ccccc3Cl)n[nH]c2c1` [Compound 29], the “% Inhibition at 10 μM Concentration” value in assay [10] was 8%.
As to `COc1ccc2c(c1)C(=Cc1ccc3c(-c4ccc(N5CCN(C)CC5)nc4)n[nH]c3c1)C(=O)N2` [Compound 31], the “% Inhibition at 10 μM Concentration” value in [10] was determined as 76%. Also, the half-inhibitory concentration (IC50) in assay [11] was less than 5 µM.
As to `COc1ccc2c(c1)[C@]1(C[C@H]1c1ccc3c(/C=C/c4ccc(CN5CCOCC5)cc4)n[nH]c3c1)C(=O)N2C` [Compound 36], the inhibition at 10 µM in [13] is greater than 50%. The half-maximal inhibitory concentration (IC50) in assay [12] was less than 5 µM.
On to `COc1ccc2c(c1)[C@]1(C[C@H]1c1ccc3c(/C=C/c4ccc(CN5C[C@@H](C)O[C@@H](C)C5)cc4)n[nH]c3c1)C(=O)N2` [Compound 37], for which the inhibition at 10 µM in [13] is greater than 50%.
Still for that read-out and setting: to `C[C@@H]1CN(Cc2ccc(/C=C/c3n[nH]c4cc([C@@H]5C[C@@]56C(=O)Nc5ccccc56)ccc34)cc2)C[C@H](C)O1` [Compound 38] belongs greater than 50%.
Regarding `CN(C)Cc1ccc(/C=C/c2n[nH]c3cc(C=C4C(=O)Nc5ccccc54)ccc23)cc1` [Compound 39], the inhibition at 10 µM in assay [13] is greater than 50%; in assay [2], less than 50%. For the same compound, in assay [11], the concentration for half-maximal inhibition (IC50) is less than 5 µM.
